Structures are written as SMILES. Peptide text beside a SMILES is read from it. * marks the point of attachment. Propyl(2R-PamO,3-PamO) = CCCCCCCCCCCCCCCC(=O)OC[C@H](C*)OC(=O)CCCCCCCCCCCCCCC

For one series, the system named is C57B1/6J mice. Description: Survival after gamma irradiation with p53 inhibitor pretreatment. The class given is in vivo. The settings on record: 10 mg/kg i.p. Here is the method: To examine the role of p53 in radiation-induced death, mice were treated with the small molecule inhibitor of p53, pifithrin-alpha (PFTα) (Komarov et al., Science 285:1733-7, 1999) immediately prior to gamma irradiation. C57B1/6J mice (6-8 weeks old males were used here and below, if not indicated otherwise) were injected intraperitoneally with 10 mg/kg of PFTα and then irradiated using a Shepherd 4000 Ci ^137Cesium source at a dose rate of 4 Gy per minute.

Another series concerns mice. Briefly: Mitigation of radiation injury, injection 1 hr after TBI. The class given is in vivo. Here is the method:
The ability of CBLB612 to serve as a mitigator of lower dose radiation injury was also examined. For this, 50 μg of CBLB612/mouse was injected intramuscularly 1 hr after exposure to 8.5, 9, or 10 Gy of TBI.

Another series concerns ICR mice. Description: Radioprotection against total body gamma irradiation (TBI), 30-day survival. The class given is in vivo. The settings on record: for toxicity in combination with radiation: i.m. 24 hours before 10 Gy TBI; for rank of radioprotective potency: i.m. 24 hrs before 10 Gy TBI. The text has this: CBLB601, a R-Pam2-lipopeptide with the peptide moiety consisting of C-SKKKK (SEQ ID NO: 8), was selected for more detailed characterization as a radioprotector based upon its ability to activate NF-κB and preliminary in vivo data on radioprotection in NIH-SWISS mice (see Example 2). The objectives of this study were to determine the optimal dose, route of administration, and time of administration of CBLB601 to serve as a protector. ICR female mice of 10-15 weeks of age were used, with 10-15 animals per group or condition.
The optimal intraperitoneal administration schedule of CBLB601 was determined by injecting the compound at different times prior to irradiation. […] Therefore, all of the optimization experiments were performed with 10 Gy of total body irradiation (TBI). A dose of 3 μg of BCLB601/mouse (1/10 NOAEL) was chosen as the starting dose. Thus, 3 μg of CBLB601 was injected i.p. into ICR mice at 0.5 h, 1 h, 6 h, and 24 h or 1 h, 24 h, 48 h, 72 h, 96 h prior to 10 Gy of TBI (as described in Example 1). […] Injection of CBLB601 24 hrs before irradiation clearly yielded the best radioprotection (90-100% 30-day survival). When the compound was administered 48 hrs before irradiation, the radioprotection was ˜30%. Administration of CBLB601 at 1 hr prior to irradiation produced inconsistent results ranging from 80% protection in one experiment (FIG. 5B) to almost no protection (20%) in another experiment (FIG. 5A).
To determine the optimal radioprotective dose of CBLB601, the timing of injection and level of irradiation were kept constant, while the dose of CBLB601 was varied. ICR mice were injected i.p. with 1, 3, 10, 20, or 30 μg of CBLB601/mouse or 0.1, 0.3, 1, 3, 10, or […] 24 hrs prior to irradiation (10 Gy of TBI), and their survival was monitored for 30 days. The best protective dose was 3 μg/mouse, which supported a survival of 100% (FIGS. 6 A and B). […] Thus, the optimal protective dose of CBLB601 was determined to be 3 μg/mouse.
To determine the level of radiation that was protected by CBLB601, radioprotectant-treated and control mice were exposed to increasing levels of TBI. Groups of ICR mice were injected i.p. with either 3 μg CBLB601/mouse or PBS, and then 24 h later they received 10, 11, 12, 13, 14, and 15 Gy doses of TBI. Survival was recorded over 30 days. […] All of the mice irradiated with 10-11 Gy of TBI died between days 12-14 post irradiation, which was typical for death due to hematopoietic failure. All of the mice that received 14-15 Gy of TBI died between days 7-9 post irradiation, which was typical for mortality due to radiation-induced intestinal damage. Mice that were irradiated with 12-13 Gy of TBI died at intermediate times, which was typical for a mixed etiology of radiation-induced mortality. […] To reach a statistically significant 10% difference between control and CBLB601-treated mice, experimental groups of at least 50 mice must be used. Although CBLB601 rescued 100% of mice from 10 Gy of TBI, its protection at 11 Gy of TBI was only 20%. […] This may be indicative of a combined toxicity of the drug and the irradiation.
CBLB601 was administered intramuscularly to determine the optimal route of administration of this compound (especially since this would be the preferred route of administration for humans). […] In another experiment, increasing doses of CBLB601 administered i.m. were tested against 10, 11, and 12 Gy doses of […] (FIG. 9). […] A summary of the dose-dependency of the radioprotection of […] administered i.p. or i.m. 24 h prior to 10 Gy of TBI is shown in FIG. 10.
The optimal schedule of intramuscular administration of CBLB601 was determined by varying the time between drug delivery and irradiation. ICR mice were injected i.m. with 3 μg of CBLB601/mouse 24 h, 6 h, 3 h, and 1 h prior to TBI and +1 h, +3 h after TBI (FIG. 12A), as well as 48 h, 36 h, 24 h, 12 h, and 6 h prior to TBI (FIG. 12B). […]

Another series deals with T1, TLR2/TLR6 heterodimer (Homo sapiens, UniProt O60603+Q9Y2C9).
T1 construct: expressed in transfected cells; host or cells: 293 cells
T1 sequence (O60603 21-784): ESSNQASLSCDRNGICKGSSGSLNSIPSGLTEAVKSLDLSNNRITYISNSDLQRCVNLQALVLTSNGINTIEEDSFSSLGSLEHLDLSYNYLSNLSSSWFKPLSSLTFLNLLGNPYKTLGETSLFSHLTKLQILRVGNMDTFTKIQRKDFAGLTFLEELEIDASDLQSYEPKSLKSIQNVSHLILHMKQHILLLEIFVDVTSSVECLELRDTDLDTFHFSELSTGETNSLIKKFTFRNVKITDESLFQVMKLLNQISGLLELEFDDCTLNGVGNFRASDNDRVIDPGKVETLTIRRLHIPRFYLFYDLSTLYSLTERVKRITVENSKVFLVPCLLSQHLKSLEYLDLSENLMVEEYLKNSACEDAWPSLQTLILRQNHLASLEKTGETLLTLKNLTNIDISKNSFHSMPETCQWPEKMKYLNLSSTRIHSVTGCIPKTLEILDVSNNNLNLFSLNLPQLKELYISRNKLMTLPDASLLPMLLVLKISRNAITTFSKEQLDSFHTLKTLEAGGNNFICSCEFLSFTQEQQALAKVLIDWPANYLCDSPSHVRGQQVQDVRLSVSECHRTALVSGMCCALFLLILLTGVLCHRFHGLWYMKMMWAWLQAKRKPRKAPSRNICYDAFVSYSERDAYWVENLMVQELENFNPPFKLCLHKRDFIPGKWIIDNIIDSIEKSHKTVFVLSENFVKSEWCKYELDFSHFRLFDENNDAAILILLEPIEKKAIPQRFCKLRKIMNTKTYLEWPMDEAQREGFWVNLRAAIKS
T1 sequence (Q9Y2C9 32-796): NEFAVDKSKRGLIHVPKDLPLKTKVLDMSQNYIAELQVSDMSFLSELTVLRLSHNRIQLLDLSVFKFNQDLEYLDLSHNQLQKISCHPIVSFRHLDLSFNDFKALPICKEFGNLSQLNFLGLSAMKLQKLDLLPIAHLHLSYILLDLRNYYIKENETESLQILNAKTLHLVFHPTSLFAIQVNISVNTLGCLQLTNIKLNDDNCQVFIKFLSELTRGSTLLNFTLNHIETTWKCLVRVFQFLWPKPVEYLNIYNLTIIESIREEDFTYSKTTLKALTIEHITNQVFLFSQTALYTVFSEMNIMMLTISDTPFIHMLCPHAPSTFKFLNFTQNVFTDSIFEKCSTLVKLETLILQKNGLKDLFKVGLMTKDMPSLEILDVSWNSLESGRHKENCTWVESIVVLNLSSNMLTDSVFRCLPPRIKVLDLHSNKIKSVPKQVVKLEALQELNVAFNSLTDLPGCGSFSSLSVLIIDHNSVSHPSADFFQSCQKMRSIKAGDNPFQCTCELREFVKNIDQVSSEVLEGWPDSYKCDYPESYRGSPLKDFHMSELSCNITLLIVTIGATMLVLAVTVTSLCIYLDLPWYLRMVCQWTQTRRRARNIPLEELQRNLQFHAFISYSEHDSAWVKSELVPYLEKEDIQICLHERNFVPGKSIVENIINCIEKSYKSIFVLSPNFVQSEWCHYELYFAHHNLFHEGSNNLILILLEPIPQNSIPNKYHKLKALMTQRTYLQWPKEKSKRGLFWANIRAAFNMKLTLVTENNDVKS
Description: NF-κB-dependent reporter activity in 293 cells expressing the TLR2/TLR6 heterodimer. On the set-up: NF-κB activation: scale not given here. The settings on record: for activation of the NF-κB reporter (in words, compared with CBLB601): 293 cells expressing TLR2/TLR6, various doses; for NF-κB activation: in vitro activity, 293 cells expressing TLR2/TLR6. The class given is cell-based. The procedure: NF-κB-dependent reporter activity was measured in 293 cells that expressed the TLR2/YLR6 heterodimer. […] None of the non-palmitoylated corresponding peptides activated the NF-κB reporter (FIG. 18B). The peptide component of CBLB617 has a (−4) charge, which should prevent it from interacting with negatively charged cell surface markers. […] Table 5 summarizes the in vitro activity and solubility of all the compounds.

The nature of series [1]: Solubility of the lipopeptides.

`Cc1ccc(C(=O)Cn2c3c(sc2=N)CCCC3)cc1` [PFTα, pifithrin-alpha]: the “survival of irradiated mice” value in the series with C57B1/6J mice (fractioned cumulative 12.5 Gy (5×2.5 Gy)) is “protected mice”; with C57B1/6J mice (single 9 Gy dose), “protected mice”; with C57B1/6J mice (single 12.5 Gy), “no effect on the survival”; in the series on C57B1/6J mice (single 25 Gy) it was “no effect on the survival”.

On to `CCCCCCCCCCCCCCCC(=O)OC[C@H](CSC[C@H](N)C(=O)N[C@H](C(=O)N[C@@H](CCC(N)=O)C(=O)NCC(=O)N[C@@H](CCC(=O)O)C(=O)N[C@@H](CCC(=O)O)C(=O)N[C@@H](CO)C(=O)N[C@@H](CC(N)=O)C(=O)N[C@@H](CC(=O)O)C(=O)N[C@@H](CCCCN)C(=O)O)C(C)C)OC(=O)CCCCCCCCCCCCCCC` [CBLB612] (H-C(Propyl(2R-PamO,3-PamO))VQGEESNDK-OH), for which the “survival rate versus PBS” value with mice (50 μg/mouse i.m. 1 hr after 8.5, 9 or 10 Gy TBI) is recorded as “increased the survival rate at every dose of radiation”. Moreover, in the series on mice (50 μg/mouse i.m. 1 hr after 8.5 Gy TBI), the “mice surviving to 27 days” value was determined as 90%. Further, the “mice surviving to 27 days” value in the series with mice (50 μg/mouse i.m. 1 hr after 9 Gy TBI) came out at 70%. Further, in the series with ICR mice, the “toxicity in combination with radiation” value is listed as “no toxicity in combination with radiation” and the “rank of radioprotective potency” value was “CBLB612>CBLB614>CBLB615”. Besides, the “radioprotector quality compared with CBLB601” value in the series with ICR mice (mouse, in vivo) is listed as “significantly better radioprotectors than CBLB601”. The therapeutic index in the series on ICR mice (summary of Example 5) was ~20. On TLR2/TLR6 heterodimer, the “activation of the NF-κB reporter (in words, compared with CBLB601)” value is recorded as “better activators than CBLB601” and the NF-κB activation was 200. The Solubility entry in series [1] was “Excellent”.

As for `CCCCCCCCCCCCCCCC(=O)OC[C@H](CSC[C@H](N)C(=O)NCC(=O)N[C@@H](CCC(=O)O)C(=O)N[C@@H](CCC(=O)O)C(=O)N[C@@H](CO)C(=O)N[C@@H](CC(N)=O)C(=O)O)OC(=O)CCCCCCCCCCCCCCC` [CBLB615] (H-C(Propyl(2R-PamO,3-PamO))GEESN-OH), in the series on ICR mice, the “toxicity in combination with radiation” value is recorded as “no toxicity in combination with radiation” and the “rank of radioprotective potency” value is reported as “CBLB612>CBLB614>CBLB615”. In addition, at TLR2/TLR6 heterodimer, the “activation of the NF-κB reporter (in words, compared with CBLB601)” value is recorded as “better activators than CBLB601” and the NF-κB activation was 200. In addition, the Solubility result in series [1] was “Soluble”.

Source of the values: patent US8008260B2, “Methods of protecting against apoptosis using lipopeptides” (Cleveland Clinic Foundation, priority 2005, dated 2011).
